How the values were obtained:
1321N1 cells = experiment: Mitogenesis / [3H]-thymidine incorporation in 1321N1 cells; assay type: cell-based, human; conditions: for effect on proliferation / [3H]-thymidine incorporation: compound alone
Experimental: (§1) Maintenance and Treatment of Cell Lines. Human HepG2 hepatocarcinoma cells and human U87MG glioma cells (ATCC, Manassas, Va.) were maintained in EMEM medium supplemented with 1% L-glutamine, 1% sodium pyruvate, 1% penicillin/streptomycin, and 10% FBS (Hyclone, Logan, Utah). The human 1321N1 astrocytoma cells (European Collection of Cell Cultures, Sigma-Aldrich) were cultured in Dulbecco's modified Eagle's medium supplemented with 10% FBS and penicillin/streptomycin. All cell lines were cultured at 37° C. in 5% CO2, and the medium was replaced every 2-3 days.
(§2) [^3H]-Thymidine Incorporation Assay. Cells were seeded in 12-well plates at approximately 50,000 cells/well and incubated at 37° C. After 24 hours, the wells were rinsed with PBS and replaced with serum-free medium containing the appropriate concentration of the test compounds. After another 24-hour incubation at 37° C., 1 μCi of [^3H]-thymidine was added to each well and incubated at 37° C. for 16 hours. [^3H]-Thymidine incorporation into DNA was monitored after the cells were washed twice with PBS and then lysed in 600 μL of 0.1N NaOH for 30 minutes with shaking. The lysate was then mixed with 3 mL of liquid scintillation cocktail (Beckman Coulter, Inc., Brea, Calif.), and radioactivity was measured by liquid scintillation counting using Beckman Coulter LS6000IC Scintillation Counter. Data are shown as CPM incorporated compared to the control cells.

HepG2 cells [1] = experiment: cAMP accumulation in HepG2 cells; assay type: cell-based, human; conditions: β-agonists at 10 μM
Experimental: cAMP Accumulation. HepG2 cells were seeded in 96-well plates and grown to confluency. […] The levels of cAMP accumulated in cells were determined and normalized to the amount of protein per well.

rat C6 glioma cells = experiment: 3H-Thymidine incorporation in rat C6 glioma cells; assay type: cell-based; conditions: for effect of preincubation on antiproliferative effect of MNF: C6 cells, ICI-118,551 3 nM, AM251 0.5 and 1 μM, AM630 0.5 μM, 30 minutes, then 20 nM MNF
Experimental: Cell culture. The rat-derived C6 glioma cell line was obtained from the American Type Culture Collection (Manassas, Va.). The cells were routinely maintained in DMEM supplemented with L-glutamine, 1% penicillin/streptomycin solution, and 10% FBS in a humidified CO2 incubator at 37° C.
3H-Thymidine incorporation. C6 glioma cells were seeded in 12-well plates at ˜5×10^4 cells/well and incubated for 24 hours followed by a second 24-hour incubation with various concentrations of MNF. Radiolabeled thymidine (10 Ci/mmol; PerkinElmer Life and Analytical Sciences, Waltham, Mass.) was added at 1 μCi per well for 16 hours and its incorporation into DNA was then measured. Each treatment group was performed in triplicate and three independent studies were carried out.

Akt and ERK1/2 = experiment: phosphorylation of Akt and ERK1/2 in HepG2 cells (Western blot); assay type: cell-based, human; conditions: 1 μM, 5, 10 and 30 minutes
Experimental: Western Blotting. Cells were lysed with RIPA buffer containing EGTA and EDTA (Boston BioProducts, Ashland, Mass.). The lysis buffer was mixed with a protease inhibitor cocktail (Sigma-Aldrich). Protein concentrations were measured using the bicinchoninic acid reagent (Thermo-Pierce Biotechnology, Inc., Rockford, Ill.). […] Western blots were performed according to standard methods. The visualization of immunoreactive bands was performed using the ECL Plus Western Blotting Detection System (GE Healthcare, NJ) and their quantification was done by volume densitometry using Image J software and normalization to β-actin. […] The antibodies were used at a dilution recommended by the manufacturer.

U87MG cells = experiment: [3H]-Thymidine incorporation in U87MG cells; assay type: cell-based, human
Experimental: as §1
as §2, with “Cells” for “[^3H]-Thymidine Incorporation Assay. Cells”

HepG2 cells [2] = experiment: [3H]-Thymidine incorporation assay in HepG2 cells; assay type: cell-based, human; conditions: for % Change in HepG2 cells ([3H]-thymidine incorporation): 1 μM; for effect of pretreatment on (R,R′)-Fen-stimulated mitogenesis: 1 h pretreatment then (R,R′)-Fen 24 h; for effect of pretreatment on anti-proliferative effect of (R,R′)-MNF: 1 h pretreatment then (R,R′)-MNF 24 h; for effect on cell proliferation: compound alone
Experimental: as §1
as §2, with “Cells” for “[^3H]-Thymidine Incorporation Assay. Cells”

GPR55 = GPR55 (Homo sapiens, UniProt Q9Y2T6); experiment: Cellular uptake of TocriFluor T1117 in HepG2 cells; assay type: cell-based; set-up: host or cells: HepG2 hepatocarcinoma cells; conditions: for effect of pretreatment on T1117 incorporation: HepG2, AM630 1 μM, WIN 55,212-2 1 μM (1 hour), AM251 1 μM (30 minutes)
GPR55, sequence (Q9Y2T6 whole entry): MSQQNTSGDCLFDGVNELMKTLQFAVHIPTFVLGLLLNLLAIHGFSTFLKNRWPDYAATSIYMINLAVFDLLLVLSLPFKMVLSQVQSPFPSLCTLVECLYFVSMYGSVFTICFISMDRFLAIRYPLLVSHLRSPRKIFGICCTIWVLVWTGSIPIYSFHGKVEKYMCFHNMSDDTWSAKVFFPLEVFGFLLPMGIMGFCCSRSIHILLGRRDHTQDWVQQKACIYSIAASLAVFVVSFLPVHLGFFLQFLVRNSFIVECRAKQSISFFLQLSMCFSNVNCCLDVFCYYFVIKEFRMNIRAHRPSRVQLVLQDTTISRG

## CC(C)NC[C@H](O)c1ccc(O)c(O)c1 [(R)-isoproterenol, reference compound]
1321N1 cells
  effect on proliferation / [3H]-thymidine incorporation: reduced proliferation in 1321N1 cells
HepG2 cells [1]
  cAMP production: Neither (R)-isoproterenol nor (R,R′)-Fen, at 10 μM, elicited an increase in cAMP production
Rat C6 glioma cells; Rattus norvegicus, 20 nM, 24 hours, read-out: inhibition of C6 cell growth / reduction in mitogenesis
  inhibition at 0.02 µM: 10 to 15%
Akt and ERK1/2
  Akt and ERK activation: induced a time-dependent increase in Akt and ERK activation
U87MG cells; compound alone
  effect on cellular proliferation: had no effect on U87MG cells
HepG2 cells [2]; Homo sapiens, HepG2 cells, serum-free medium, 24 h, read-out: IC50/EC50 (μM): EC50 (ED50) for increase in [3H]-thymidine incorporation
  EC50: 0.4 ± 0.08 µM

## C[C@H](Cc1cccc2ccccc12)NC[C@H](O)c1cc(O)cc(O)c1 [(R,R′)-1-naphthylFen, (R,R′)-1-naphthylfenoterol]
HepG2 cells [2]; 24 h
  % Change in HepG2 cells ([3H]-thymidine incorporation): (R,R): −67.52%
HepG2 cells [2]; Homo sapiens, HepG2, read-out: IC50/EC50 (μM): IC50 for inhibition of [3H]-thymidine incorporation
  IC50: 0.21 ± 0.07 µM

## C[C@H](Cc1ccc(N)cc1)NC[C@H](O)c1cc(O)cc(O)c1 [(R,R′)-aminoFen, (R,R′)-4′-aminofenoterol]
1321N1 cells
  effect on proliferation / [3H]-thymidine incorporation: markedly lower
HepG2 cells [2]; 24 h
  % Change in HepG2 cells ([3H]-thymidine incorporation): (R,R′): 54.37%
HepG2 cells [2]; [3H]-thymidine incorporation, HepG2
  fold more active than (R,R′)-Fen: 3 fold

## C[C@@H](Cc1ccc(O)cc1)NC[C@H](O)c1cc(O)cc(O)c1 [(R,S′)-Fen, fenoterol]
HepG2 cells [2]; 24 h
  % Change in HepG2 cells ([3H]-thymidine incorporation): 19.1%

## COc1ccc(C[C@H](C)NC[C@H](O)c2cc(O)cc(O)c2)c2ccccc12 [(R,S′)-MNF, 4-methoxy-1-naphthylfenoterol]
HepG2 cells [2]; 24 h
  % Change in HepG2 cells ([3H]-thymidine incorporation): −68.1%

## C[C@H](Cc1ccc(O)cc1)NC[C@@H](O)c1cc(O)cc(O)c1 [(S,R′)-Fen, fenoterol]
HepG2 cells [2]; 24 h
  % Change in HepG2 cells ([3H]-thymidine incorporation): 28.7%

## Cc1c(C(=O)NN2CCCCC2)nn(-c2ccc(Cl)cc2Cl)c1-c1ccc(I)cc1 [AM251, 1-(2,4-dichlorophenyl)-5-(4-iodophenyl)-4-methyl-N-(1-piperidyl)pyrazole-3-carboxamide, reference compound]
Rat C6 glioma cells
  effect of preincubation on antiproliferative effect of MNF: rendered C6 cells refractory to the growth-inhibitory effect of MNF
U87MG cells
  effect of pretreatment on anti-proliferative action of (R,R′)-MNF: partially blocked
HepG2 cells [2]; HepG2 cells
  effect of pretreatment on (R,R′)-Fen-stimulated mitogenesis: had no impact on the mitogenic responses of (R,R′)-Fen
  effect of pretreatment on anti-proliferative effect of (R,R′)-MNF: completely inhibited the anti-proliferative effects of (R,R′)-MNF

## COc1ccc(C(=O)c2c(C)n(CCN3CCOCC3)c3cc(I)ccc23)cc1 [AM630, 1-[2-(morpholin-4-yl)ethyl]-2-methyl-3-(4-methoxybenzoyl)-6-iodoindole]
Rat C6 glioma cells
  effect of preincubation on antiproliferative effect of MNF: had minimal effect against MNF signaling
GPR55
  effect of pretreatment on T1117 incorporation: largely inactive
U87MG cells
  effect of pretreatment on anti-proliferative action of (R,R′)-MNF: partially blocked
HepG2 cells [2]; HepG2 cells
  effect of pretreatment on (R,R′)-Fen-stimulated mitogenesis: had no impact on the mitogenic responses of (R,R′)-Fen
  effect of pretreatment on anti-proliferative effect of (R,R′)-MNF: completely inhibited the anti-proliferative effects of (R,R′)-MNF

## CCCCCCC(C)(C)c1ccc([C@@H]2C[C@H](O)CC[C@H]2CCCO)c(O)c1 [CP 55,940]
GPR55; HepG2, 0.25 μM, 30-minutes pretreatment
  reduction of T1117 uptake: 2.5 fold

## Cc1ccc(OCC(O)C(C)NC(C)C)c2c1CCC2 (stereo not drawn) [ICI 118,551, 3-(isopropylamino)-1-[(7-methyl-4-indanyl)oxy]butan-2-ol, reference compound]
1321N1 cells
  effect of pretreatment on (R,R′)-Fen signaling: blocked (R,R′)-Fen signaling in 1321N1 cells
Rat C6 glioma cells
  effect of preincubation on antiproliferative effect of MNF: did not block the antiproliferative effect of MNF
U87MG cells
  effect of pretreatment on anti-proliferative action of (R,R′)-MNF: inactive against the anti-proliferative action of (R,R′)-MNF in U87MG cells
HepG2 cells [2]; HepG2 cells
  effect of pretreatment on (R,R′)-Fen-stimulated mitogenesis: significantly blocked (R,R′)-Fen-stimulated mitogenesis
  effect of pretreatment on anti-proliferative effect of (R,R′)-MNF: refractory to ICI 118,551 pretreatment
  effect on cell proliferation: showed no effect on cell proliferation

## Cc1c(C(=O)NN2CCCCC2)nn(-c2ccc(Cl)cc2Cl)c1-c1ccc(-c2ccc(CCCNC(=O)c3ccc4c(c3)C(=O)OC43c4ccc(N(C)C)cc4Oc4cc(N(C)C)ccc43)cc2)cc1 [T1117]
GPR55; HepG2 cells transfected with control siRNA
  time of half-maximum incorporation of T1117: ~15 min
GPR55; serum-depleted cells, 37° C., 2.5-100 nM, read-out: T1117 concentration of half-maximal cellular incorporation
  EC50: ~8 nM

## CN(C)c1ccc2c(-c3ccc(C(=O)NCCCc4ccccc4)cc3C(=O)[O-])c3ccc(N(C)C)cc3[o+]c2c1 [TAMRA-PPA, 5′-TAMRA-3-phenylpropan-1-amine]
GPR55; HepG2 cells, up to 1 hour
  cellular incorporation of fluorescence: no significant incorporation of fluorescence

## Cc1c(C(=O)c2cccc3ccccc23)c2cccc3c2n1[C@H](CN1CCOCC1)CO3 [WIN 55,212-2, reference compound]
GPR55
  effect of pretreatment on T1117 incorporation: markedly increased the rate of T1117 accumulation
HepG2 cells [2]; HepG2 cells
  effect of pretreatment on (R,R′)-Fen-stimulated mitogenesis: canceled out the growth-promoting action of fenoterol
  effect on cell proliferation: reduced cell proliferation

— patent US11389415B2, “Methods of regulating cannabinoid receptor activity-related disorders and diseases” (The United States of America as represented by the …, priority 2012, dated 2022)
